In paper PMC3577903, “Staphylococcus aureus FepA and FepB Proteins Drive Heme Iron Utilization in Escherichia coli” (PLoS ONE, 2013) one finds Kd data, which are given here for one molecule.

Molecules are shown by their SMILES.

For this test, the target named is T1, FepB (FepB-6His, apo-FepB) (Staphylococcus aureus, UniProt Q2G130).
T1 construct: gene SAOUHSC_00326; Tat signal peptide removed; six-histidine tag kept (pET22b NdeI/XhoI); expressed in E. coli; apo form monomeric after gel filtration (heme-loaded form dimeric)
The experiment in a line: UV-visible absorbance titration (Soret band […] nm), one-site fit. The class given is binding. The following applies: apo-FepB 2.2 µM, 50 mM Tris-HCl pH 8.0, 0.2 M NaCl, room temperature; stoichiometry 0.9; PPIX in DMSO; stoichiometry 0.7.

T1 sequence (Q2G130 entry or part of it): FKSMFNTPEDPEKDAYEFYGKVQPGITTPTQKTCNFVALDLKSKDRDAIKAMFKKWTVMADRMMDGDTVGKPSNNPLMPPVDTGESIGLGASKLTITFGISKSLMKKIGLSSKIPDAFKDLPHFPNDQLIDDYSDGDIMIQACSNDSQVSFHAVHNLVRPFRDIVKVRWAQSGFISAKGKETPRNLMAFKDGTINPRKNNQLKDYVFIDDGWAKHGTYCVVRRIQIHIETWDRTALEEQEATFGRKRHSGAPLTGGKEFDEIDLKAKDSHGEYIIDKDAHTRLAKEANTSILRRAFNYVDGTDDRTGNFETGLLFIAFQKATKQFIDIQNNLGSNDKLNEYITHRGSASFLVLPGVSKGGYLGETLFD

Turning to `C=CC1=C(C)c2cc3[nH]c(cc4nc(cc5[nH]c(cc1n2)c(C)c5CCC(=O)O)C(CCC(=O)O)=C4C)c(C)c3C=C` [PPIX], the Kd is listed as 21.1±5,2 nM.
